Tests used:
[1] = test system: inflammation associated with the breast implants; experiment: 18-FDG PET/CT of a patient with breast implants; assay type: in vivo, human; conditions: one patient, 20 mg/day, 12 weeks, FIG. 6
Protocol: A patient with breast implants was treated with VD-201 at 20 mg/day for 12 weeks. PET-CT scans were done at baseline and at 12 weeks, using positron emission computed tomography (PET/CT) imaging quantifying 18-fluorodeoxyglucose (18-FDG) uptake as a TBR as described in Example 1.

[2] = test system: vascular inflammation of carotid arteries and ascending aorta in patients with moderate to severe plaque psoriasis; experiment: 18-FDG PET/CT sub-study of phase 2 trial: vascular inflammation as target to background ratio (TBR); assay type: in vivo, human; conditions: 12 weeks
Text: This study was a sub-study of the above phase 2, randomized, double-blind, multicenter trial, of patients (aged 18-75) with moderate to severe plaque psoriasis, see also infra at Example 3. […] In addition, patients enrolled into the sub-study had to have the presence or history of one of the following: non-insulin dependent diabetes mellitus (NIDDM), peripheral vascular disease (PVD), smoker, hypertension, ischemic heart disease or cerebrovascular disease; obesity (BMI ≧25), hypercholesterolemia (LDL>160 mg/dL or taking anti-hyperlipidemia treatment), or family history of ischemic heart disease (in brother or father before age 55, in sister or mother before age 65) or at least 40 years of age with a history of psoriasis for at least 7 years. Patients were randomly assigned (1:1:1) to receive VB-201 20 mg, VB-201 80 mg or placebo for 12 weeks. The primary endpoint was the maximum TBR in the most diseased segment (MDS) of an index vessel at 12 weeks (percent change from baseline). The effect of treatment with 20 mg per day and 80 mg per day VB-201 on carotid arteries and ascending aorta inflammation was examined. Inflammation was measured by positron emission computed tomography (PET-CT) to quantify 18-fluorodeoxyglucose (18-FDG) uptake as a target to background ratio (TBR).
[…] imaging was performed following an overnight fast using a PET-CT scanner system with CT attenuation correction. 18-FDG was administered intravenously at a dose of 370 MBq and PET images were acquired approximately 90 minutes after injection. Baseline scans were evaluated and all inflammatory plaques in the left and right carotid arteries and ascending aorta were identified and totaled for each treatment group. PET scans were performed at Harvard Medical School and Massachusetts General Hospital, Boston, Mass., USA and at Translational and Molecular Imaging Institute and Department of Radiology, Mount Sinai School of Medicine, New York, N.Y., USA. All scans were analyzed by a central reader at the Mount Sinai center in New York City. The TBR was calculated from the ratio of the standard uptake values (SUV) of the target compared to background venous activity:
TBR (Target Background Ratio)=Target activity SUVTarget/SUV Background Venous Activity
The baseline and 12-week PET/CT datasets for each patient were structurally co-registered with each other, and FDG uptake was compared across each patient's images within pre-defined sections of the target vessels. For the aorta, measurements were made every 3 mm, starting 1 cm above the aortic valve annulus, continuing to the bottom of the aortic arch. For the right and left carotids, measurements were made every 3 mm, starting at the level of the carotid artery bifurcation, and continuing inferiorly 4 cm into the common carotid artery. Measurements were made in the axial plane by drawing a region of interest (ROI) around the artery wall and the maximum standardized uptake value (SUV) was recorded as the time- and dose-corrected tissue radioactivity divided by body weight. This represented the values for the target tissue. For the carotid arteries, the SUV Mean from the lumen of the jugular vein was used in at least 10 consecutive slices (at least 5 on each side). For the aorta, the background SUVMean from the atrium or SVC was used in at least 10 consecutive slices.
All statistical tests were two-sided with a significance level of 5%, unless specified otherwise, and were performed using SASS Version 9.2. Data was summarized using descriptive statistics (number of patients [N], mean, standard deviation [SD], median, minimum, and maximum).
Subjects were scanned by PET-CT to determine baseline 18-FDG uptake, and those with a TBR of at least 1.6 in either the carotid artery or the ascending aorta were selected. After screening and establishment of a baseline, eligible subjects were randomly assigned to receive 20 mg per day VB-201, 80 mg per day VB-201 or a daily placebo, for a period of 12 weeks. […]

[3] = test system: patients with moderate to severe plaque psoriasis; experiment: safety evaluation in the Phase II clinical study; assay type: in vivo, human
Protocol: The efficacy analyses were performed on the data from a modified intention-to-treat (MITT) population (defined as all patients randomized who received at least one dose of medication and had at least one efficacy evaluation). The safety analyses were performed on all randomized patients who received at least one dose of the drug.

human CD 14+ monocytes = conditions: VB-201 5 μg/ml prior to chemotaxis assay; MCP-1 (50 ng/ml), MIP-1a (50 ng/ml) or RANTES (100 ng/ml); FIG. 1A
humans = experiment: tolerability of daily dose in human clinical studies; assay type: in vivo
[4] = 80 mg group, patients not taking concomitant statins
[5] = patients taking statins (6 on 20 mg and 6 on 80 mg), p=0.01

## CCCCCCCCCCCCCCCCOC[C@H](COP(=O)([O-])OCC[N+](C)(C)C)OCCCCC(=O)O [VB-201, 1-hexadecyl-2-(4′-carboxy)butyl-sn-glycero-3-phosphocholine]
[1]
  inflammation surrounding the breast implants (18-FDG uptake): reduced inflammation surrounding the breast implants
[2]; 20 mg/day, p=0.14
  change from baseline in 18-FDG-PET MDS TBR of the index vessel: −7.3%
[2]; [4]
  mean change from baseline of the maximum TBR in the MDS in the index vessel: −0.39
  percent change from baseline of the maximum TBR in the MDS in the index vessel: −8.84%
[2]; 80 mg/day, p=0.04
  change from baseline in 18-FDG-PET MDS TBR of the index vessel: −12.7%
[2]; p=0.037, FIG. 5
  dose response of TBR change across quartiles of VB-201 trough blood levels: A dose response was seen
[2]; VB-201 80 mg group, p=0.04
  reduction from baseline in vascular inflammation based on PET-CT measure: 12.7%
[2]; combined VB-201 treated group, p=0.01
  reduction from baseline in vascular inflammation based on PET-CT measure: 9.8%
[2]; one patient with breast implants, 20 mg/day, FIG. 6
  inflammation of the ascending aorta (18-FDG uptake): inflammation of the aorta in the patient was also reduced
[2]; [5]
  mean change from baseline of the maximum TBR in the MDS in the index vessel: −0.74
  percent change from baseline of the maximum TBR in the MDS in the index vessel: −18.48%
[3]; 80 mg/day
  severity of diarrhea cases: mild (Grade 1) and transient
[3]; 80 mg/day (placebo 6.8%)
  diarrhea rate: 15.3%
[3]; PET-CT sub-study, 20 or 80 mg/day, 12 weeks
  safety and tolerability: safe and well tolerated
[3]; doses of 20 mg/day and 80 mg/day
  tolerability: well tolerated
[3]; main study, 2 subjects
  overall rate of Serious Adverse Events: 1.6%
[3]; main study, 12 weeks
  deaths on therapy: No deaths occurred on therapy
  related Serious Adverse Events: No related Serious Adverse Events were observed
[3]; on VB-201, 4 subjects
  overall rate of discontinuation due to Adverse Events: 3.2%
Human CD 14+ monocytes
  human monocyte migration towards chemoattractants: decreases human monocyte migration
humans; higher dose (e.g., 160 mg/day) in multiple sub-doses e.g. 12 hours apart, each about 80 mg or less
  gastrointestinal events: largely avoided
humans; humans, single daily dose
  tolerability: well tolerated up to a dose of about 80 mg/day
humans; larger doses (e.g., 160 mg/day) as a single daily dose
  gastrointestinal events (G-I intolerance, mainly nausea and vomiting): associated with certain gastrointestinal events
